Experimental findings from PMC8274934, “FisB relies on homo-oligomerization and lipid binding to catalyze membrane fission in bacteria” (PLoS Biology, 2021) are described below.

Substitutions are numbered along the chain they refer to.

Assay [1] concerns the target His6-FisB ECD (recombinant soluble extracytoplasmic domain of fission protein B, wild type) (B. subtilis). The assay can be described thus: negative-stain electron microscopy; high molecular weight SEC fractions on carbon-coated grids, 2% uranyl acetate.
Assay [2] concerns the target T1, iFluor555-FisB ECD (Bacillus subtilis, UniProt O32131, G123C).
T1 construct: iFluor555-maleimide on G123C; forms soluble oligomers
T1 sequence (O32131 39-254 G123C limits assumed): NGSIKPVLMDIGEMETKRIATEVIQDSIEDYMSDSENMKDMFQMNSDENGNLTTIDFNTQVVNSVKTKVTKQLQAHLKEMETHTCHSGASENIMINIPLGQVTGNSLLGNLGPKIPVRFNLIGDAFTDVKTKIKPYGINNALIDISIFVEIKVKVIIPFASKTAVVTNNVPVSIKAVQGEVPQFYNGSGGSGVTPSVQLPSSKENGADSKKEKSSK
The assay can be described thus: liposome co-flotation, fluorescence of gel band. In kind it is binding. Particulars: apparent, in total lipid concentration, 55% PC, 100 nM labelled protein, room temperature, 1 h.

Assay [3] has as its target T2, iFluor555-FisB ECD (Bacillus subtilis, UniProt O32131, G123C/K168D/K170E).
T2 construct: iFluor555-maleimide on G123C; forms soluble oligomers
T2 sequence (O32131 39-254 G123C/K168D/K170E limits assumed): T1 sequence (O32131 39-254 G123C limits assumed) with K130D, K132E
The assay can be described thus: liposome co-flotation, fluorescence of gel band. In kind it is binding. The settings on record: apparent; in total lipid concentration; liposomes 45 mole % CL, 55% PC; 100 nM labelled protein; room temperature, 1 h; read-out: KdKK.

In the case of “His6-FisB ECD (recombinant soluble extracytoplasmic domain of fission protein B, wild type) (domain or fragment)”, the stoichiometry N in assay [1] worked out at 40 copies. As to cardiolipin [CL], the Kd at iFluor555-FisB ECD [2] (liposomes 45 mole % CL) came to 1 µM; on iFluor555-FisB ECD [3], 9.1 µM. For the substance phosphatidylglycerol [PG], the Kd at iFluor555-FisB ECD [2] (liposomes 45 mole % PG) worked out at 3.6 µM.
